# Data: patent US9440982B2 (Eolas Therapeutics, Inc., priority 2012, dated 2016)
# Molecular target: T1, CYP3A4 (Homo sapiens, UniProt P08684)
# T1 construct: pre-incubated with human liver microsomes and NADPH; from tissue; host or cells: human liver microsomes
# Assay: Cytochrome P450 inhibition assay (midazolam hydroxylation)
# Format: in vitro ADME
# Conditions: human, human liver microsomes, probe midazolam (hydroxylation to 1′-hydroxymidazolam), 10 μM test compound, midazolam at approximately its Km
# Experimental: Compounds were tested for the potential to induce drug-drug interactions by inhibition of the cytochrome P450 3A4 isoform. The assay evaluated the metabolism of a specific marker substrate (CYP3A4, midazolam hydroxylation to 1′-hydroxymidazolam) in the presence or absence of 10 μM test compound. The concentration of the marker substrate was approximately its Km (Dixit et al., Biopharm. Drug Dispos. 2007, 28(5), 257-262). A specific inhibitor for the isoform was included in each run to validate the system. An appropriate positive control inhibitor was used. Mechanism-based inhibition was investigated where warranted using a classical method. To evaluate time-dependent inhibition, parallel samples may have been included where […] was pre-incubated with human liver microsomes and NADPH for 30 min prior to the addition of the P450 substrate. The percent inhibition of the pre-incubated and non-pre-incubated samples were compared as a preliminary evaluation of time-dependent inhibition.
# T1 sequence (P08684 whole entry): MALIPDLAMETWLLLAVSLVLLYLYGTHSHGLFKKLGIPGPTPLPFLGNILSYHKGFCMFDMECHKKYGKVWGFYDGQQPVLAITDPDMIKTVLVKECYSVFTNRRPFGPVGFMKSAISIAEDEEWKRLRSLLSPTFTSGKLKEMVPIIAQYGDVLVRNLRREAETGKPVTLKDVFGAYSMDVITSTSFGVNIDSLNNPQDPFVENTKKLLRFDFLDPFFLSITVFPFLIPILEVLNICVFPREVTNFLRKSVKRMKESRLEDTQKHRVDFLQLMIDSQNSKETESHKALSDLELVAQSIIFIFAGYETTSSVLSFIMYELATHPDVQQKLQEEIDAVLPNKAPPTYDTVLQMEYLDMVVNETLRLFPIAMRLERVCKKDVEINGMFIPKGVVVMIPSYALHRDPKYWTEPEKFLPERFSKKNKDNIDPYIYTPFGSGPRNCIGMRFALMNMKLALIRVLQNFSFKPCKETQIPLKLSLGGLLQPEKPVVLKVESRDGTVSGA
row,Compound,inhibition at 10 µM [%]
1,"Cc1ccc(-n2ncc(C)n2)c(C(=O)N2CCC[C@@H](C)[C@H]2CNc2nc3cc(F)ccc3o2)c1 [Example A141, ((2S,3R)-2-(((5-Fluorobenzo[d]oxazol-2-yl)amino)methyl)-3-methylpiperidin-1-yl)(5-methyl-2-(4-methyl-2H-1,2,3-triazol-2-yl)phenyl)methanone]",72
2,"Cc1ccc(NC[C@@H]2[C@H](C)CCCN2C(=O)c2nc(C)ccc2-n2nccn2)nc1 [Example A196, ((2S,3R)-3-Methyl-2-(((5-methylpyridin-2-yl)amino)methyl)piperidin-1-yl)(6-methyl-3-(2H-1,2,3-triazol-2-yl)pyridin-2-yl)methanone]",50
3,"C[C@@H]1CCCN(C(=O)c2cc(F)ccc2-c2ncccn2)[C@@H]1CNc1ncc(Cl)cn1 [Example A226, ((2S,3R)-2-(((5-Chloropyrimidin-2-yl)amino)methyl)-3-methylpiperidin-1-yl)(5-fluoro-2-(pyrimidin-2-yl)phenyl) methanone]",60
4,"Cc1ccc(-n2nccn2)c(C(=O)N2CCC[C@@H](C)[C@H]2CNc2cccc(C(F)(F)F)n2)c1 [Example A89, ((2S,3R)-3-Methyl-2-(((6-(trifluoromethyl)pyridin-2-yl)amino)methyl)piperidin-1-yl)(5-methyl-2-(2H-1,2,3-triazol-2-yl)phenyl)methanone]",92
5,"Cc1ccc(-c2ccnc(C)n2)c(C(=O)N2CCC[C@@H](C)[C@H]2CNc2nc3cc(Cl)ccc3o2)c1 [Example A27, ((2S,3R)-2-(((5-Chlorobenzo[d]oxazol-2-yl)amino)methyl)-3-methylpiperidin-1-yl)(5-methyl-2-(2-methylpyrimidin-4-yl)phenyl)methanone]",95
6,"Cc1ccc(-c2cnn(C)c2)c(C(=O)N2CCC[C@@H](C)[C@H]2CNc2ccc(Cl)cn2)c1 [Example A105, ((2S,3R)-2-(((5-Chloropyridin-2-yl)amino)methyl)-3-methylpiperidin-1-yl)(5-methyl-2-(1-methyl-1H-pyrazol-4-yl)phenyl)methanone]",96
7,"Cc1cccc(C(=O)N2CCC[C@@H](C)[C@H]2CNc2ncc(C(F)(F)F)cn2)c1-n1nccn1 [Example A267, ((2S,3R)-3-Methyl-2-(((5-(trifluoromethyl)pyrimidin-2-yl)amino)methyl)piperidin-1-yl)(3-methyl-2-(2H-1,2,3-triazol-2-yl)phenyl)methanone]",65
8,"Cc1ccc(-c2nccc(C)n2)c(C(=O)N2CCC[C@@H](C)[C@H]2CNc2nc3cc(Cl)ccc3o2)c1 [Example A35, ((2S,3R)-2-(((5-Chlorobenzo[d]oxazol-2-yl)amino)methyl)-3-methylpiperidin-1-yl)(5-methyl-2-(4-methylpyrimidin-2-yl)phenyl)methanone]",92
9,"Cc1ccc(-n2nccn2)c(C(=O)N2CCC[C@@H](C)[C@H]2CNc2ncc3ccc(C)cc3n2)c1 [Example A215, ((2S,3R)-3-Methyl-2-(((7-methylquinazolin-2-yl)amino)methyl)piperidin-1-yl)(5-methyl-2-(2H-1,2,3-triazol-2-yl)phenyl)methanone]",67
10,"Cc1ccc(-n2nccn2)c(C(=O)N2CCC[C@@H](C)[C@H]2CNc2ncc3ccccc3n2)c1 [Example A216, ((2S,3R)-3-Methyl-2-((quinazolin-2-ylamino)methyl)piperidin-1-yl)(5-methyl-2-(2H-1,2,3-triazol-2-yl)phenyl)methanone]",67
11,"Cc1ccc(-n2cccn2)c(C(=O)N2CCC[C@@H](C)[C@H]2CNc2ccc(C#N)cn2)c1 [Example A155, 6-((((2S,3R)-3-Methyl-1-(5-methyl-2-(1H-pyrazol-1-yl)benzoyl)piperidin-2-yl)methyl)amino)nicotinonitrile]",72
12,"Cc1ccc(-c2ccccn2)c(C(=O)N2CCC[C@@H](C)[C@H]2CNc2nc3cc(F)ccc3o2)c1 [Example A128, ((2S,3R)-2-(((5-Fluorobenzo[d]oxazol-2-yl)amino)methyl)-3-methylpiperidin-1-yl)(5-methyl-2-(pyridin-2-yl)phenyl)methanone]",88
